Here are results for four compounds from US10959997B2, “Combined agent for cell therapy of corneal endothelial cell” (KYOTO PREFECTURAL PUBLIC UNIVERSITY CORPORATION, priority 2013, dated 2021).

The subject of test [1] is type II myosin. To be noted: enantiomer of blebbistatin; cited from earlier work.
Test [2] concerns non-muscle myosin II. The conditions noted are these: cited from earlier work.
For test [3], the system named is skeletal muscle myosin II. The conditions noted are these: cited from earlier work.
Test [4] relates to actin polymerization. The conditions noted are these: cited from earlier work.
Test [5] concerns paxillin phosphorylation. The experiment in a line: Western blot of adhesion-related molecules (phospho paxillin). It counts as cell-based, cynomolgus monkey. On the technique in general: A western blot detects proteins with antibodies after separation by electrophoresis.
The subject of test [6] is rabbit bullous keratopathy model. Nature of the test: Transplantation of cultured corneal endothelial cells in combination with inhibitor, injected into the anterior chamber. The conditions noted are these: for state of the anterior ocular section after transplantation (pictures): day 3, day 7, day 14. In kind it is in vivo. As for the experimental part:
In primary culture of rabbit corneal endothelial cells, a Descemet's membrane including an endothelial cell layer was detached from a corneal tissue and 0.5 ml of Accutase (catalog number: AT104, Innovative Cell Technologies) was used for each eye, and incubated at 37° C. by using a water bath. After 20 minutes, a culture medium was added and pipetting was performed. The sample was centrifuged at 1200 rpm for 3 minutes to remove the supernatant. A culture medium was then added to a precipitated corneal endothelial cell mass for admixing. The entire amount was seeded on a 12-well plate coated with FNC Coating Mix (catalog No.: 0407; Athena Enzyme Systems, Baltimore, Md., USA). DMEM (catalog No.: 12320; Gibco-Invitrogen), to which 10% FBS, 1% Penicillin-Streptomycin Mixed Solution (catalog number: 26252-94; Nacalai Tesque), and 2 ng/ml basic fibroblast growth factor, catalog number: 13256-029; bFGF; Invitrogen) were added, was used as a culture medium.
A medium was exchanged every other day. Subculture was performed when 50 to 80% confluence was reached. With respect to the subculturing method, cells were washed with Ca^2+Mg^2+-free PBS (PBS−; Nissui Pharmaceutical Co., Ltd., Tokyo, Japan), and 0.05% Trypsin-EDTA (catalog No.: 25300-054; Invitrogen) was added and incubated at 37° C. for 3 minutes. Cells were detached and collected from the plate. After the cells were centrifuged at 1500 rpm for 3 minutes, a culture medium was added to make a cell suspension. Cells were seeded on a plate coated with FNC Coating Mix at a density of 1:2-3.
Rabbit corneal endothelial cells were detached with a soft tapered needle (Inami, M-563S) to make a bullous keratopathy model. Subsequently, 5.0×10^5 cultured rabbit corneal endothelial cells were suspended in 200 μl of Dulbecco's Modified Eagle Medium (DMEM) with blebbistatin adjusted to a final concentration of 10 μM. The suspension was injected into the anterior chamber and the corneal surface was maintained in a face-down position for three hours. A group injected with 5.0×10^5 rabbit corneal endothelial cells suspended into 200 μl of Dulbecco's Modified Eagle Medium (DMEM) with Y-27632 adjusted to a final concentration of 100 μM in the anterior chamber, a group subjected only to scraping off of corneal endothelial cells, and a group injected with 5.0×10^5 rabbit corneal endothelial cells suspended in a 200 μl of Dulbecco's Modified Eagle Medium (DMEM) into the anterior chamber were used as comparison groups.
A rabbit bullous keratopathy model eye with the corneal endothelium scraped off was injected with 5.0×10^5 cultured rabbit corneal endothelial cells suspended in 200 μl of Dulbecco's Modified Eagle Medium (DMEM) with blebbistatin adjusted to a final concentration of 1 μM and 3 μM into the anterior chamber as in Example 3. […]

Test [7] has as its system myosin light chain (MLC) phosphorylation. The experiment in a line: Western blot of Rho-ROCK pathway activity (phospho myosin light chain). In kind it is cell-based, cynomolgus monkey. As for the experimental part:
DMEM (Gibco-Invitrogen) to which Y-27632 was added such that the final concentration would be 10 μM and cultured monkey corneal endothelial cells were seeded. Over time, i.e., 0, 1, 3, and 24 hours thereafter, proteins extracted with RIPA buffer were subjected to electrophoresis with 7.5% polyacrylamide. DMEM (Gibco-Invitrogen) was used as a control. The separated protein was transcribed onto a PVDF membrane (PALL LIFE SCIENCE, catalog number: EH-2222). Blocking procedure was carried out by incubating a Tris buffered saline (10 mM Tris-HCl, pH 7.4, 100 mM NaCl) supplemented with 0.1% (vol/vol) polyethylene sorbitan monolaurate (Nacalai Tesque, catalog number: 28353-85) (TBS-T) and 5% non-fat dry milk (CELL SIGNALING, catalog number: 9999) and the blotted membrane for one hour. The membrane was then immersed in TBS-T supplemented with antibodies against Phospho Myosin Light Chain 2 (Thr18/Ser19) (CELL SIGNALING, catalog number: 3674), Phospho FAK (Y397) (D20B1) Rabbit mAb (CELL SIGNALING, catalog number: 8556), Phospho Paxillin (Tyr118) Antibody (CELL SIGNALING, catalog number: 2541), GAPDH (14C10) Rabbit mAb (CELL SIGNALING, catalog number: 2118) and diluted 1000-fold, and reacted for 1 hour at room temperature. […]

The subject of test [8] is cultured monkey corneal endothelial cells. The experiment in a line: Examination of number of adhering cells with CellTiter-Glo. In kind it is cell-based, cynomolgus monkey. (In general: ATP-based viability assays read luminescence as a measure of living cells.)
The subject of test [9] is focal adhesion kinase (FAK) phosphorylation. It counts as cell-based, cynomolgus monkey.

Each structure is given as a SMILES string. Counter-ions that a name gives are not always drawn. Like-named read-outs stand apart in the source and are kept apart here.

Turning to `Cc1ccc2c(c1)C(=O)C1(O)CCN(c3ccccc3)C1=N2` (single isomer, unassigned; (+)) [(+) form], in [1], the “effect as myosin II-specific inhibitor” value is reported as “does not”.

Consider `CC(=O)C(C)=NO` [BDM, 2,3-butanedione monoxime], for which the “inhibiting effect on non-muscle myosin II” value in [2] was “does not have an inhibiting effect”. In addition, the “action on skeletal muscle myosin II” value in test [3] was “has action on skeletal muscle myosin II”. In addition, the “effect on actin polymerization” value in [4] is reported as “inhibiting actin polymerization”.

In the case of `C[C@@H](N)[C@H]1CC[C@H](C(=O)Nc2ccncc2)CC1` [Y-27632, (R)-(+)-trans-(4-pyridyl)-4-(1-aminoethyl)-dihydrochloride cyclohexanecarboxamide monohydrate], the phosphorylation of paxillin result in test [5] was “phosphorylated at an early stage”. Also, the “state of the anterior ocular section after transplantation (pictures)” value in test [6] (Y-27632 100 μM with 5.0×10^5 cells in 200 μl DMEM) is given as “excellent”. The “concentration at which efficacy is exhibited” value in test [6] (animal models with bullous keratopathy) lay in the range of 10 to 100 µM. The MLC phosphorylation entry in test [7] (Y-27632 10 μM, 0, 1, 3 and 24 hours) was “suppresses”. Moreover, the “number of adhering cells” value in test [8] is “significantly increased”. Further, in test [9], the “phosphorylation of FAK” value is given as “phosphorylated at an early stage”.

`Cc1ccc2c(c1)C(=O)[C@]1(O)CCN(c3ccccc3)C1=N2` [blebbistatin, (S)-(−)-Blebbistatin]: the phosphorylation of paxillin result in test [5] (blebbistatin 100 μM, 0, 1, 3 and 24 hours) is reported as “phosphorylated at an early stage”. Further, in test [6] (blebbistatin 1 μM, 3 μM, 10 μM versus Y-27632 100 μM), the “concentration needed for therapy compared with Y-27632” value is given as “therapy was possible at a lower concentration relative to Y-27632”. The “state of the anterior ocular section after transplantation (pictures)” value in [6] (blebbistatin 10 μM with 5.0×10^5 cells in 200 μl DMEM) is “excellent as with Y-27632”. For the same compound, the MLC phosphorylation activity entry in [7] (addition of blebbistatin, stated in the discussion) was “suppression of the MLC phosphorylation activity”. For the same compound, the “number of adhering cells” value in [8] (blebbistatin 100 μM, three hours from seeding, in comparison to the control (DMEM)) was “significantly increased”. The “effect as myosin II-specific inhibitor” value in [1] is recorded as “has an effect”.
